Structures are written as SMILES. Read-outs that look alike come from different tables or passages of the source.

For series [1], the target named is T1, P2Y4 receptor (Homo sapiens, UniProt P51582).
T1 construct: expressed in transfected cells; host or cells: 1321N1 human astrocytoma cells
Description: Ca2+ mobilizing effect (fluo-4) in 1321N1 cells expressing P2Y4 receptor. The class given is cell-based. The procedure:
(§1) Nucleoside disphosphate analogs of the foregoing compounds were tested for activation of P2Y6 receptor by measuring receptor induced Ca^2+ changes with the fluorescent Ca^2+ indicator fluo-4. 1321N1 human astrocytoma cell lines either expressing P2Y2, P2Y4 or P2Y6 receptors were plated into 24-well plates. Two days after plating, fluorometric measurements were made and responses of cells to a serial dilution of compound were determined. P2Y6 receptor mediated Ca^2+ fluorescent change was determined by normalized accumulation of fluorescent change of 3 timepoints after compound administration subtracted by value from ACSF control. Changes in fluorescent intensity were plotted corresponding to compound concentration in GraphPad. Dose-response curve and EC50 for each compound was estimated using nonlinear curve fit and Sigmoidal dose-response analysis. […]
(§2) Synthetic compounds were tested for activation of P2Y6 receptor by measuring receptor induced Ca^2+ changes with the fluorescent Ca^2+ indicator fluo-4, and results are shown in FIGS. 3(A)-(K). […] Two days after plating, fluorometric measurements were made and responses of cells to a serial dilution of compound were determined. P2Y6 receptor mediated Ca^2+ fluorescent change was determined by normalized accumulation of fluorescent change of 3 timepoints after compound administration subtracted by value from ACSF control. […]

In series [2] the target is T2, P2Y6 receptor (Homo sapiens, UniProt Q15077). Description: Activation of P2Y6 receptor: receptor induced Ca2+ changes with fluo-4 in 1321N1 cells. On the set-up: expressed in transfected cells; host or cells: 1321N1 human astrocytoma cells. The class given is cell-based. The method, then: as §1, §2
Series [3] has as its target T3, P2Y2 receptor (Homo sapiens, UniProt P41231).
T3 construct: expressed in transfected cells; host or cells: 1321N1 human astrocytoma cells
Description: Ca2+ mobilizing effect (fluo-4) in 1321N1 cells expressing P2Y2 receptor. The class given is cell-based. The procedure:
as §1, §2

Series [4] has as its system PSAPP mice. Description: Tolerability of increased dose of PSB0474 in PSAPP mice. The class given is in vivo, mouse. The following applies: 1000× increase in dose.
Series [5] has as its target T2, P2Y6 receptor. The following applies: cited from earlier work.
The test system of series [6] is PSAPP mice. The series can be described thus: Plaque load in cortex and hippocampus by amyloid beta immunostaining. The class given is in vivo, mouse. The following applies: for immunoreactivity of β1-40 in cortex: FIG. 2A; for immunoreactivity of β1-40 in hippocampus: FIG. 2B. The procedure:
PSB0474 was systemically administered to PSAPP mice via intraperitoneal injection for 2, 4 and 6 consecutive days. In one group, prior to evaluation and following to administration for 6 consecutive days, treatment was suspended for two weeks (6+2 weeks group). Brains were then fixed and plaque load was evaluated by immunostaining with the amyloid beta specific antibodies: β1-40 and β1-42. Representative images of plaque load in cortex and hippocampus from animals that received injections of PSB0474 according to the foregoing injection schedules are shown in FIGS. 1(A)-(D). […] Whereas, when administration of PSB0474 was stopped for 2 weeks following six consecutive days of treatment (denoted as the 6+2 weeks group), β1-40 staining rebounded; although to a level lower than observed in mice treated with saline as a vehicle control. […] FIGS. 2C-2F depict data obtained following administration of different dosages of PSB0474.
To generate these graphs showing plaque load, mice were euthanized, brain sections cut and antibodies directed against Aβ42 were used to disclose Aβ plaques. Images were acquired digitally and an algorithm was applied to threshold the image so that plaques were isolated from the background. The algorithm then calculated the percent area of the field of view occupied by the plaques.
Brain samples were collected for Abeta analysis with immunostaining. Brains samples were collected after transcardial perfusion with phosphate buffer and 4% paraformaldehyde. Floating brain sections (40 micron) were collected using a microtome. Immunostaining for […] and Aβ42 were performed according to previously established protocol. Images with DAB staining were collected with brightfield microscopy and analyzed with ImageJ Macro. All data analysis and statistics were performed in GraphPad Prism 6.0.
(§3) In this study, treatment of PSAPP mice commenced when the mice were pre-symptomatic. Specifically, treatment was initiated when the mice were approximately 3 months old. PSAPP mice were treated for 100 days with daily, intraperitoneal injections of 10 μg/kg of compound 5 or vehicle. Following treatment, mice were assessed in a fear conditioning task for memory formation. Subsequently, plaque burden in the mice was also evaluated. The data provided in Examples 16 and 17 is for 19 vehicle treated mice and 22 compound treated mice. The data provided for the vehicle-treated group is the average across those mice, and error bars depict the standard error (SEM). Similarly, the data provided for the compound-treated group is the average across those mice, and the error bars depict the SEM.
as §3, with “assessed for the following: concentration of circulating pro-inflammatory cytokines; amyloid beta load (e.g., plaque burden); and memory” for “assessed”, “formation.” for “formation. Subsequently, plaque burden in the mice was also evaluated.”, “Example 18” for “Examples 16 and 17”, “18” for “19”, “20” for “22”, “SEM. Mice were first evaluated in the fear conditioning task experiment. Subsequently, plasma was taken for multiplex cytokine analysis of circulating levels of cytokine in the plasma. Finally, plaque burden was assessed in the cortex and hippocampus of the mice.” for “SEM.”
In this study, treatment of PSAPP mice commenced after the mice were already symptomatic. Specifically, treatment was initiated when the mice were approximately 6 months old. […]

The subject of series [7] is THP-1 cells. The series can be described thus: Cytokine release from human THP-1 cells (multiplex analysis of culture medium). Format: cell-based. The note with it: 24 hours, vs vehicle. The procedure:
THP-1 cells, a human cell line derived from monocytes, were treated in vitro with vehicle, the P2Y6 receptor antagonist MRS 2578, or compound 5, singly or in combination. THP-1 cells were seeded in 24 well plates at a density of 4×10^5 cells/well in culture medium for 24 hours. Thereafter, vehicle, compound 5, or MRS 2578 (singly or in combination) were added to the cultures for 24 hours. Subsequently the culture medium was aspirated and subjected to multiplex cytokine analysis. Data are presented as means+/−sem. MRS 2578 has a molecular weight of about 472 and is also described using CAS number 711019-86-2.

T2 sequence (Q15077 whole entry): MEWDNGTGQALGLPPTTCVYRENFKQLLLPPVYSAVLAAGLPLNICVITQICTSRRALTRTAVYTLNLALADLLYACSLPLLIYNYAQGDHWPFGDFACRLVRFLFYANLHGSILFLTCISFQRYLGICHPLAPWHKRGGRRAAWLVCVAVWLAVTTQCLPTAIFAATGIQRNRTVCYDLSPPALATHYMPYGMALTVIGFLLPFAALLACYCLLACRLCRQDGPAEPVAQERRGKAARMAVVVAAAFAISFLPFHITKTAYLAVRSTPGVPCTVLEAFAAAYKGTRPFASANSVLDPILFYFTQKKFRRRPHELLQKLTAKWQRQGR
T1 sequence (P51582 whole entry): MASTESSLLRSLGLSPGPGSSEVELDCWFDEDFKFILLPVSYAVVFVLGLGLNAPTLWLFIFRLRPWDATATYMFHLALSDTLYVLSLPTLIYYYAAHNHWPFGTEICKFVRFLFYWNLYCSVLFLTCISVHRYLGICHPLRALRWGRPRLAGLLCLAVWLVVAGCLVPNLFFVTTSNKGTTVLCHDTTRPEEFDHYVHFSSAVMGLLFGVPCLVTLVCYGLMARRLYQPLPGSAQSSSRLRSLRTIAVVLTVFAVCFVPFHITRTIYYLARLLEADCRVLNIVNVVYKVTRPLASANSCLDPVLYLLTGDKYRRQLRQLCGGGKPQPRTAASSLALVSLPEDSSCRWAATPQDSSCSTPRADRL
T3 sequence (P41231 whole entry): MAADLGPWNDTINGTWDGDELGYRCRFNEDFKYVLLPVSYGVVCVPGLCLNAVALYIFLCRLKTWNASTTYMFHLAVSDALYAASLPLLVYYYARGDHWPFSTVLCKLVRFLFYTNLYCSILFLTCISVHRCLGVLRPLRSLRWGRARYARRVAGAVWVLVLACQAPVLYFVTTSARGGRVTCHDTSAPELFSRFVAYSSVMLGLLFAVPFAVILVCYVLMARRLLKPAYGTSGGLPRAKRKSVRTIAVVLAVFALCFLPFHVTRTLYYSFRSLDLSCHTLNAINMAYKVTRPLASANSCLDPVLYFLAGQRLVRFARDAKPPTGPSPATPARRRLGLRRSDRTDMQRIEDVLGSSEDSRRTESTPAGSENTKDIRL

For orientation: EC50 means the midpoint of the concentration-response curve. As for `O=c1ccn(C2OC(COP(=O)(O)OP(=O)(O)O)C(O)[C@@H]2O)c(=O)n1Cc1noc2ccccc12` (stereo partly shown), in series [1], the “elevating Ca^2+ levels in P2Y4 receptor expressing cells” value was “not effective”. This molecule also came in with an EC50 in series [2] (1321N1 human astrocytoma cells expressing P2Y6, fluo-4 Ca2+ fluorescence) of 12 nM. Further, the “ability to elevate Ca^2+ signals in P2Y6 receptor expressing cells” value in series [2] (with addition of the P2Y6 antagonist MRS2578) is recorded as “attenuated”. For the same molecule, the “elevating Ca^2+ levels in P2Y2 receptor expressing cells” value in series [3] was “not effective”.
On to `O=C(Cn1c(=O)ccn([C@@H]2O[C@H](COP(=O)(O)OP(=O)(O)O)[C@@H](O)[C@H]2O)c1=O)c1ccccc1` [3-phenacyl-UDP, reference compound], for which, in series [4], the “detrimental effects to the animal” value is recorded as “did not cause detrimental effects”. Further, the EC50 in series [5] (P2Y6 receptor agonist) is 70 nM. For the same molecule, the “selectivity for P2Y6 receptor” value in series [5] is reported as over 500 fold. In addition, the β1-40 staining entry in series [6] (6 consecutive days, then stopped for 2 weeks (6+2 weeks group), still lower than saline control) was “rebounded”. Besides, the “effects on the efficacy endpoint (plaque load)” value in series [6] (higher dose of 1 mg/kg, FIGS. 2C-2F) is given as “smaller effects”. Further, in series [6] (i.p. for 4 consecutive days), the “immunoreactivity of β1-40 in cortex” value is reported as “significantly decreased” and the “immunoreactivity of β1-40 in hippocampus” value was “significantly decreased”. Further, in series [6] (i.p. for 6 consecutive days), the “immunoreactivity of β1-40 in cortex” value is “significantly decreased” and the “immunoreactivity of β1-40 in hippocampus” value was “significantly decreased”.
Take `S=C=Nc1cccc(NC(=S)NCCCCNC(=S)Nc2cccc(N=C=S)c2)c1` [MRS 2578]: the “release of fractalkine into culture media” value in series [7] (FIG. 18A) is listed as “increased”. In series [7] (FIG. 18B), the “release of PDGF-BB into culture media” value is “increased”. The “release of IL-7 into culture media” value in series [7] (MRS 2578 alone, FIG. 18C, FIG. 19) was “increased”.

The values are drawn from US20180085386A1, “URIDINE MONOPHOSPHATE AND TRIPHOSPHATE DERIVATIVES, COMPOSITIONS AND METHODS OF USE” (Tufts University, priority 2016, published 2018).
